We go through nine compounds from patent US20230105212A1, “BIPHENYL DERIVATIVE INHIBITOR, PREPARATION METHOD THEREFOR AND USE THEREOF” (SHANGHAI HANSOH BIOMEDICAL CO., LTD., priority 2020, published 2023).

This assay deals with T1, human PD-1/PD-L1 binding (Homo sapiens, UniProt Q9NZQ7).
T1 construct: PD-L1-His protein (19 to 238 amino acids) (Abcam #ab167713); purchased Abcam (PD-L1-His); R&D (PD-1-Fc) ab167713; 1086-PD
T1 sequence (Q9NZQ7 19-238): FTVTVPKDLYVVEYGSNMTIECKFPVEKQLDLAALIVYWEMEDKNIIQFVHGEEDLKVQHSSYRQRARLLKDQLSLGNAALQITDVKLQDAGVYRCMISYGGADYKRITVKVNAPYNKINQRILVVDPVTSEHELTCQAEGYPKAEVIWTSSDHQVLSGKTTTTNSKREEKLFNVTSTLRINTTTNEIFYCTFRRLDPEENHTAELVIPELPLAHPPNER
In words: Inhibition of human PD-1/PD-L1 binding (TR-FRET/HTRF). The following applies: TR-FRET, PD-L1-His and PD-1-Fc; read-out: PD-1/PD-L1 binding IC50. The source says: Test Embodiment 1: Test of Inhibitory Effect of the Compounds of the Present Disclosure on Human PD-1/PD-L1 Binding
Experimental purpose: The purpose of this test embodiment was to measure the inhibitory activity of the compounds on human PD-1/PD-L1 binding.
Experimental reagents: Binding Domain diluent buffer was purchased from Cisbio Company, Cat. No.: 62DLBDDF; MAb Anti-6HIS Eu cryptate Gold was purchased from Cisbio Company with the article number of 61HI2KLA; PAb Anti Human IgG-XL665 was purchased from Cisbio Company with the article number of 61HFCXLB; PD-L1-His protein was purchased from Abcam Company with the article number of ab167713; PD-1-Fc protein was purchased from R&D Company with the article number of 1086-PD; Detection buffer was purchased from Cisbio Company with the article number of 62SDBRDD; 384-well plate was purchased from PerkinElmer Company with the article number of 6007290.
Experimental method: In order to test the inhibitory activity of the compounds on human PD-1/PD-L1 binding, the method of time-resolved fluorescence resonance energy transfer (TR-FRET) was used in this experiment to test the inhibition of the compounds on human PD-1/PD-L1 binding, and the half inhibitory concentration IC50 of inhibitory activity of the compounds on human PD-1/PD-L1 binding was obtained.
This experiment was performed in a 384-well plate with a total reaction volume of 20 μL. Compounds were diluted to different concentrations (10 μM or 1 μM starting, 3-fold dilution, 11 doses) using assay buffer Binding Domain diluent buffer (Cisbio #62DLBDDF), then PD-L1-His protein (19 to 238 amino acids) (Abcam #ab167713) was diluted to 10 nM with assay buffer, and PD-1-Fc protein (25 to 167 amino acids) (R&D #1086-PD) was diluted to 20 nM with assay buffer; the compound, PD-L1 protein and PD-1 protein were added to a 384-well plate respectively, and the total volume was 10 μL, then centrifuged at 1000 rpm for 1 minute to mix well, and incubated for 60 minutes at room temperature. Then 10 μL of a mixed solution of MAb Anti-6HIS Eu cryptate Gold (Cisbio #61HI2KLA) and PAb Anti Human IgG-XL665 (Cisbio #61HFCXLB) diluted by HTRF Detection buffer was added to each well, and centrifuged at 1000 rpm for 1 minute to mix well. The reaction was carried out at room temperature for 3 hours or at 4° C. overnight, then a microplate reader (BioTek Synergy H1) was put into for reading; the excitation wavelength was 340 nm, and the emission wavelengths were 620 nm and 665 nm.
The ratio of fluorescence readings at 620 nm and 665 nm (665 nm/620 nm) was calculated, and the inhibition rate was calculated.
For orientation: TR-FRET usually uses a lanthanide donor and a delayed reading to cut background.
On to `COc1cc(CN[C@@H]2CCOC[C@@H]2F)cnc1C(=O)Nc1cccc(-c2cccc(NC(=O)c3nc4c(n3C)CCN(C)C4)c2Cl)c1C` [Embodiment 109, N-(2-Chloro-3′-(5-((((3R,4R)-3-fluorotetrahydro-2H-pyran-4-yl)amino)methyl)-3-methoxypicolinamido)-2′-methyl-[1,1′-biphenyl]-3-yl)-1,5-dimethyl-4,5,6,7-tetrahydro-1H-imidazo[4,5-c]pyridine-2-carboxamide], for which the IC50 is 4.7 nM.
For `COc1cc(-c2cccc(-c3cccc(NC(=O)c4nc5c(n4C)CCN(C)C5)c3Cl)c2Cl)ncc1CNC1CCOCC1` [Embodiment 57, N-(2,2′-Dichloro-3′-(4-methoxy-5-(((tetrahydro-2H-pyran-4-yl)amino)methyl)pyridin-2-yl)-[1,1′-biphenyl]-3-yl)-1,5-dimethyl-4,5,6,7-tetrahydro-1H-imidazo[4,5-c]pyridine-2-carboxamide], the IC50 worked out at 3 nM.
For the compound `COc1cc(C(=O)Nc2cccc(-c3cccc(NC(=O)c4nc5c(n4C)CCN(C)C5)c3Cl)c2C)ncc1CNC1CN(C(C)=O)C1` [Embodiment 100, N-(3′-(5-(((1-Acetylazetidin-3-yl)amino)methyl)-4-methoxypicolinamido)-2-chloro-2′-methyl-[1,1′-biphenyl]-3-yl)-1,5-dimethyl-4,5,6,7-tetrahydro-1H-imidazo[4,5-c]pyridine-2-carboxamide], the IC50 stood at 6 nM.
Turning to `Cc1c(NC(=O)c2ccc(CN3CC[C@@H](F)C3)cn2)cccc1-c1cccc(NC(=O)c2nc3c(n2C)CCN(C)C3)c1Cl` [Embodiment 106, (R)—N-(2-Chloro-3′-(5-((3-fluoropyrrolidin-1-yl)methyl)picolinamido)-2′-methyl-[1,1′-biphenyl]-3-yl)-1,5-dimethyl-4,5,6,7-tetrahydro-1H-imidazo[4,5-c]pyridine-2-carboxamide], the IC50 came out at 6.5 nM.
With `COc1nc(C(=O)Nc2cccc(-c3cccc(NC(=O)c4nc5c(n4C)CCN(C)C5)c3Cl)c2C)ccc1CN[C@@H](C)CO` [Embodiment 43, (S)—N-(2-Chloro-3′-(5-(((1-hydroxypropan-2-yl)amino)methyl)-6-methoxypicolinamido)-2′-methyl-[1,1′-biphenyl]-3-yl)-1,5-dimethyl-4,5,6,7-tetrahydro-1H-imidazo[4,5-c]pyridine-2-carboxamide], the IC50 amounted to 4.1 nM.
With `COc1cc(C(=O)Nc2cccc(-c3cccc(NC(=O)c4nc5c(n4C)CCN(C)C5)c3Cl)c2C)ncc1C(C)(C)O` [Embodiment 50, N-(2-Chloro-3′-(5-(2-hydroxypropan-2-yl)-4-methoxypicolinamido)-2′-methyl-[1,1′-biphenyl]-3-yl)-1,5-dimethyl-4,5,6,7-tetrahydro-1H-imidazo[4,5-c]pyridine-2-carboxamide] the figure was 9 nM.
For `COc1cc(C(=O)Nc2cccc(-c3cccc(NC(=O)c4nc5c(n4C)CCN(C)C5)c3Cl)c2C)ncc1CN1CC2(COC2)CC1=O` [Embodiment 104, N-(2-Chloro-3′-(4-methoxy-5-((7-carbonyl-2-oxa-6-azaspiro[3.4]octan-6-yl)methyl)picolinamido)-2′-methyl-[1,1′-biphenyl]-3-yl)-1,5-dimethyl-4,5,6,7-tetrahydro-1H-imidazo[4,5-c]pyridine-2-carboxamide], the IC50 worked out at 9.1 nM.
`COc1cc(-c2cccc(-c3cccc(NC(=O)c4nc5c(n4C)CCN(C)C5)c3Cl)c2C)ncc1CN1CC[C@@H](F)C1` [Embodiment 60, (R)—N-(2-Chloro-3′-(5-((3-fluoropyrrolidin-1-yl)methyl)-4-methoxypyridin-2-yl)-2′-methyl-[1,1′-biphenyl]-3-yl)-1,5-dimethyl-4,5,6,7-tetrahydro-1H-imidazo[4,5-c]pyridine-2-carboxamide]: the IC50 is 6.9 nM.
In the case of `CCN1CCc2c(nc(C(=O)Nc3cccc(-c4cccc(NC(=O)c5cc(OC)c(CO)cn5)c4C)c3Cl)n2C)C1` [Embodiment 88, N-(2-Chloro-3′-(5-(hydroxymethyl)-4-methoxypicolinamido)-2′-methyl-[1,1′-biphenyl]-3-yl)-5-ethyl-1-methyl-4,5,6,7-tetrahydro-1H-imidazo[4,5-c]pyridine-2-carboxamide], the IC50 was determined as 9 nM.
